Assay results from patent US20240117305A1, “THREE-DIMENSIONAL PRINTABLE BIOCOMPATIBLE PHOTOPOLYMERIZABLE INK WITH SPATIALLY CONTROLLED DUAL PROTEIN MOTIFS FOR CO-CULTURE FUNCTIONALITY” (Rowan University, priority 2022, published 2024).
“Also recorded” adds a separate entry of the source.

Tests used:
[1] = system: ZO-1 localization in hCMEC/D3 cells; assay: ZO-1 localization to cell-cell junctions (tight junction integrity) in peptide-lined vessels; format: cell-based; conditions: for ZO-1 staining localization to cell-cell junctions (images): photoink formulation no. 1, static conditions for five days; for Root mean square ZO-1 intensity quantification (barrier formation): photoink formulation no. 1, static culture day 5, p<0.05
Protocol: (§1) P23 hCMEC/D3 endothelial cells (with and without transfection with RFP-LifeAct) were cultured until 90% confluent, trypsinized, and suspended at a concentration of 50M/mL for hydrogel cell seeding. Hydrogels were seeded with 22 μL of 12.5 M/mL and placed face up at the bottom of six well plate with 1 mL of EGM-2 incubated at 37° C./5% CO2. The cell seeding technique included 90° rotations every 30 minutes with additional seeding every hour for 4 hours. Following initial seeding, 8.8 μL of 12.5 M/mL HCMEC/D3 were injected into the bifurcation geometry for vessel coating. After 4 hours, hydrogels were kept in static culture for 4-5 days in EGM-2.
Vessels cultured in static conditions for four days were hooked up to pressure driven flow using an Arduino-controlled peristaltic pump. Gels were ported inside a perfusion chamber with 20-gauge PTFE catheter tips connected to luer locks with tygon tubing (McMaster Carr). Vessels were connected in parallel through a dampener with EGM-2 for 24 hours at a flow rate of ˜5 mL/min or 44.4 dyne/cm^2 shear stress in the branches and 1.68 dyne/cm^2 in the region adjacent to the bifurcation.
Following static and/or flow culture within the vessels, hydrogels were washed 3× in PBS and placed in 4% paraformaldehyde for 20 minutes. Gels were washed in PBS and a primary monoclonal antibody for zonula-occluden-1 (ZO-1) (Cell Signaling Technologies) was added at 1:250 in PBS and incubated at 4° C. for 48 hours. Gels were then washed for 10 minutes 3× in PBS on the rocker. Far red-labeled ZO-1 secondary antibody (Cell Signaling Technologies) was diluted 1:250 in PBS along with Hoesch at 2 ug/ml. Solution was added to the gels and incubated for 1 hour at 37° C. Gels were then washed and imaged on a Nikon Eclipse Ti Confocal microscope.
(§2) In order to quantify cell spreading, a z-projection was used with an arbitrary ROI to quantify the percentage of the area covered by cells. Three different ROI's were analyzed to provide an average and standard deviation. ZO-1 intensity was quantified in both static and perfused culture at different locations within the branched network. The image intensity along approximately 70-μm lines across the image plane were plotted to quantify ZO-1 localization to cell-cell junctions. […] ImageJ was used for all image processing and analysis.
(§3) A two-factor ANOVA was calculated to test for significance in the two variables of time and peptide coating in the cell spreading assay. In order to test for significance in the ZO-1 localization experiments, a one-factor ANOVA was calculated for each peptide condition tested.

[2] = system: hCMEC/D3 endothelial cells; assay: Endothelial spreading and cell coverage in peptide-lined DLP-printed channels; format: cell-based; conditions: for Cell spreading and vessel coverage over time: 650 μm channels in photoink formulation no. 1, 5-day static culture, images on days 1, 3, 5; for Percent cell coverage within the vessel versus control / other motifs: 650 μm channels in photoink formulation no. 1, static culture, day 5, peptide clicked to channel wall; for Microenvironment for vessel coverage and development of barrier function: overall statement covering coverage and ZO-1 results in hCMEC/D3 endothelial cells
Protocol: Radicalized driven thiol-ene reaction schemes were utilized for functionalizing biomaterials. Several thiolated peptide cell binding motifs were functionalized to the walls of the printed geometry. Fluorescent labeled peptides were first synthesized via peptide synthesizer. […] Lyophilized RFP and GFP were both brought to room temperature and diluted to 10 mg/mL in 1×PBS. The bifurcation geometry print included RFP peptide in the bulk solution at 1:1000, while 300 μL of GFP was flowed into the channel at 10 μg/mL and hit with […] for 180 seconds. Process was repeated in the same manner for channel functionalization of the ‘RU’ geometry. Similarly, HAVDI(HAVDIGGGC), derived from N-Cadherein and RGD(GCGYGRGDSPG), derived from multiple ECM proteins, were synthesized and purchased from Genscript. IKVAV(GCGGGIKVAVG), a laminin derived motif, was fabricated using a peptide synthesizer. 5 mg/mL Irgacure 12959 was diluted to 0.5 mg/mL in PBS and thiolated peptide was added to a final concentration of 5 mM. 50 μL of peptide solution was injected into the channel and 10 mW/cm^2 was radiated onto surface of gel for 60 seconds. This process was repeated after inverting the gel to assure full coverage of the peptide onto the surface of the channel. Gels were then washed out 2× for 30 minutes in PBS to remove any unbound peptide.
as §1, §2
Imaging was performed on a Nikon Eclipse Ti Confocal Microscope to assess cell spreading, morphology, and proliferation in 3D overtime within these microvessels. Images were taken on days 1, 3, and 5 following cell seeding.
as §3

With “GCGGGIKVAVG [thiolated laminin derived motif, covalently clicked to channel walls]” the “ZO-1 staining localization to cell-cell junctions (images)” value (shortened to “ZO-1 staining localization”) [1] was “increase zonula occulends-1 (“ZO-1”) localization to cell-cell junctions; also recorded: exhibited more ZO-1 localization to the cell-cell junctions”, the “Root mean square ZO-1 intensity quantification (barrier formation)” value [1] was “significantly higher barrier formation than the RGD and control-lined channels” and the “Cell spreading and vessel coverage over time” value [2] was “exhibited no noticeable difference in vessel coverage throughout the 5-day static culture”. The “Percent cell coverage within the vessel versus control / other motifs” value [2] was “significantly improve endothelialization compared to other motifs; also recorded: significantly higher coverage than the control condition” and the “Microenvironment for vessel coverage and development of barrier function” value [2] was “provide the most favorable microenvironment for both vessel coverage and development of barrier function”.

With “GCGYGRGDSPG [thiolated peptide motif derived from multiple ECM proteins, clicked to channel walls or in the bulk photoink]” the “ZO-1 localization in response to flow” value ([1]; network topology designed to induce flow separation, fully developed versus disturbed flow) was “no significant difference in ZO-1 localization in response to fully developed and disturbed flow”, the “ZO-1 staining localization” value [1] was “the ZO-1 was the most diffuse in this condition; also recorded: did not result in the highest ZO-1 localization to cell-cell junctions” and the “Cell spreading and vessel coverage over time” value [2] was “exhibited immediate spreading on PEG-norbornene and progressed linearly overtime; also recorded: increased cell spreading”. For the same sequence, the “Endothelial coverage of the branched (bifurcation) topology” value ([2]; bifurcation vessel, endothelial cells only, before seeding astrocytes) was “full channel coverage was possible”.

With HAVDIGGGC the “ZO-1 staining localization” value [1] was “increase zonula occulends-1 (“ZO-1”) localization to cell-cell junctions; also recorded: ZO-1 junctional staining was the clearest; also recorded: induced the highest ZO-1 localization to the cell-cell junctions”, the “Root mean square ZO-1 intensity quantification (barrier formation)” value [1] was “significantly higher barrier formation than the RGD and control-lined channels” and the “Cell spreading and vessel coverage over time” value [2] was “over the course of the experiment cells began to spread and cover the walls; also recorded: took several days to spread and cover the vessel wall”. The “Percent cell coverage within the vessel versus control / other motifs” value [2] was “significantly improve endothelialization compared to other motifs; also recorded: significantly higher coverage than the control condition” and the “Microenvironment for vessel coverage and development of barrier function” value [2] was “provide the most favorable microenvironment for both vessel coverage and development of barrier function”.
